Biological target: Tyrosine-protein phosphatase non-receptor type 22 (Homo sapiens) (UniProt Q9Y2R2)
Assay: inhibition of lymphoid tyrosine phosphatase LYP – biochemical, pCAP fluorogenic substrate, fluorescence, set 3, SAR follow-up (AID 449727)
Settings: recombinant LYP

Sequence of Tyrosine-protein phosphatase non-receptor type 22 (Homo sapiens) (Q9Y2R2 whole entry, looked up): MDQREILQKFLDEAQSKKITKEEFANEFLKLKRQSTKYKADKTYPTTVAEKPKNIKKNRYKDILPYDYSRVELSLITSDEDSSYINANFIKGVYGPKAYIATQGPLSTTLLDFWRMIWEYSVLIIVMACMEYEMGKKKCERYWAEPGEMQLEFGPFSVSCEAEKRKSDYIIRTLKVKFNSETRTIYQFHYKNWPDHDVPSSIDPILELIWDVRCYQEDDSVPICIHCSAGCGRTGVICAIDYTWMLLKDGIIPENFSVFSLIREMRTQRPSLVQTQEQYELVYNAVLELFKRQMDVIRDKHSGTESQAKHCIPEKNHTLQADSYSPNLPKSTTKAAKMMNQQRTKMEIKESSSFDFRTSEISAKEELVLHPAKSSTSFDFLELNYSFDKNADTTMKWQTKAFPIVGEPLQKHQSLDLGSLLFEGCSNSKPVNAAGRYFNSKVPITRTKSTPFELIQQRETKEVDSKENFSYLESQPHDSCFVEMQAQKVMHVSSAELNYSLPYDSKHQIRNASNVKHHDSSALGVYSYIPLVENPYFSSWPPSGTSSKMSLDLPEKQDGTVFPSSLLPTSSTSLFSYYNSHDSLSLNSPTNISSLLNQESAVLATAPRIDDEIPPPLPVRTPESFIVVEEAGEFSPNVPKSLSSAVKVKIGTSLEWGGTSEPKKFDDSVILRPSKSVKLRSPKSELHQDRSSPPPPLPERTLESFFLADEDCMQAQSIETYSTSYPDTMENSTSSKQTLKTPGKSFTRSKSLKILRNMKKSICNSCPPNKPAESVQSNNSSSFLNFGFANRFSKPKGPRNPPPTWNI

IC50 | SMILES
76 µM | CCc1ccc(/C=C2\SC(=S)N(CCCC(=O)Nc3ccc(C(=O)O)cc3)C2=O)cc1
47 µM | Cc1c(Cl)cccc1NS(=O)(=O)c1ccc2c(c1)C1C=CCC1C(c1ccc(C(=O)O)cc1)N2 (stereo unspecified)
3.96 µM | O=C(O)CCCN1C(=O)/C(=C/c2ccc(-c3nc4ccccc4s3)o2)SC1=S
6.36 µM | N#C/C(=C\c1ccc(OCc2ccc(Cl)cc2)cc1)C(=O)Nc1cccc(C(=O)O)c1
30.6 µM | CCOC(=O)C1=C(C)N=c2s/c(=C/c3cc(Cl)c(OCC(=O)O)c(OC)c3)c(=O)n2C1c1ccccc1Cl (stereo unspecified)
2.94 µM | COc1ccc(/C=C2\SC(=S)N(CCC(=O)Nc3ccc(C(=O)O)cc3)C2=O)cc1OC

Source: PubChem BioAssay AID449727 (Sanford-Burnham Center for Chemical Genomics, 2010)
